Here are results for 11 compounds from patent US20100137303A1, “NEW COMPOUND 255” (AstraZeneca AB, priority 2008, published 2010).

As a reminder, the MIC is the lowest concentration that inhibits growth of the organism. A word on the pIC50: it is the negative decadic logarithm of the IC50, by convention in mol/L.

SMILES strings stand for the structures. pIC50: −log10 of the molar value. Converted amounts (≈) assume the structure as drawn.

The subject of one assay is Eco-tolC. Kind of assay: Bacterial susceptibility testing in liquid media, Eco-tolC MIC. The following applies: Escherichia coli, read-out: Eco-tolC MIC.
A further assay has as its system Spn548. Kind of assay: Bacterial susceptibility testing in liquid media, Spn548 MIC. Conditions: Streptococcus pneumoniae, 24 h, read-out: Spn548 Mean MIC.
For the next assay, the system named is M. tuberculosis. Kind of assay: Mycobacteria susceptibility testing, Microplate Alamar Blue Assay, Mtu MIC. The format is cell-based, Mycobacterium tuberculosis (Mtu). The following applies: Mycobacterium tuberculosis. On the technique in general: Resazurin is reduced to fluorescent resorufin, in cell work by metabolically active cells.
In a further assay the target is T1, Msm. GyrB (Mycolicibacterium smegmatis, UniProt A0QNE0).
T1 construct: 15 nM Msm; GyrB, 650 μM ATP, and compound in dimethyl sulfoxide
Kind of assay: Msmegmatis GyrB enzyme assay (ATPase, malachite green phosphate detection). The format is biochemical. Conditions: read-out: Msm_GyrB IC50. On the procedure: Compounds may be tested for inhibition of GyrB ATPase activity using an ammonium molybdate/malachite green-based phosphate detection assay (Lanzetta, P. A., L. J. Alvarez, P. S. Reinach, and O. A. Candia, 1979, 100: 95-97; Innova Biosciences malachite green detection kit). Assays can be performed in multi-well plates in 50 μl reactions containing: 50 mM HEPES buffer pH 7.7, 250 mM potassium glutamate, 200 mM potassium chloride, 2 mM magnesium chloride, 2% glycerol, 1 mM 1,4-Dithio-DL-threitol, 0.005% Brij-35, 15 nM Msm. GyrB, 650 μM ATP, and compound in dimethyl sulfoxide. Reactions can be quenched with 12.5 μl of ammonium molybdate/malachite green detection reagent (Pi color lock gold & accelerator mix; Innova Biosciences), followed by the addition of 5 μl of stabilizer (Innova Biosciences) after 5 min of incubation.

T1 sequence (A0QNE0 whole entry): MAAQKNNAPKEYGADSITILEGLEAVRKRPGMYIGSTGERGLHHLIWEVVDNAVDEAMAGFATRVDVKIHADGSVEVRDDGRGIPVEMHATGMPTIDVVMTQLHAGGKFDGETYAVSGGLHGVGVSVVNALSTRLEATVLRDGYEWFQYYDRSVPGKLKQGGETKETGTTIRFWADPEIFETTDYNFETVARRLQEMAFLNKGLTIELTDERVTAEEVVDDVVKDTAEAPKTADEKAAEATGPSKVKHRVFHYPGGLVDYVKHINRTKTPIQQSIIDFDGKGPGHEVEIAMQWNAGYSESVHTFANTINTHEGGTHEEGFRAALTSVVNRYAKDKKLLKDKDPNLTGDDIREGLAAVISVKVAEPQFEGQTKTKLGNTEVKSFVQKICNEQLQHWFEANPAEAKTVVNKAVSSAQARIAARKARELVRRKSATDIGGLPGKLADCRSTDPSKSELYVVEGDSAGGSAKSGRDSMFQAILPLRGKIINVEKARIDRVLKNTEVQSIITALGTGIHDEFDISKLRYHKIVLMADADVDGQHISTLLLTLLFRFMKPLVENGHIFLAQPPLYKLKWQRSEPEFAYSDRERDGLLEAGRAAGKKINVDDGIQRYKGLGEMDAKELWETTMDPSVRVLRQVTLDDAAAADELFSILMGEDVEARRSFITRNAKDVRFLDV
Excerpt for Eco-tolC: (§1) Compounds may be tested for antimicrobial activity by susceptibility testing in liquid media. Compounds may be dissolved in dimethylsulfoxide and tested in 10 doubling dilutions in the susceptibility assays. The organisms used in the assay may be grown overnight on suitable agar media and then suspended in a liquid medium appropriate for the growth of the organism. The suspension can be a 0.5 McFarland and a further 1 in 10 dilution can be made into the same liquid medium to prepare the final organism suspension in 100 μL. Plates can be incubated under appropriate conditions at 37° C. for 24 hrs prior to reading.
Excerpt for Spn548: as §1

Turning to `CCNC(=O)Nc1nc2cc(-c3cncc(C(=O)OCC)c3)cnc2s1` [Example 9, 5-[2-(3-Ethyl-ureido)-thiazolo [5,4-b]pyridin-6-yl]-nicotinic acid ethyl ester], the MIC with Eco-tolC is greater than 37.1 µg/mL; in the assay with Spn548, 0.58 µg/mL (≈ 1.56 µM); in the assay with M. tuberculosis it was greater than 32 µg/mL. The pIC50 on Msm. GyrB was 7.29.
In the same order, the values of `C=CCNC(=O)Nc1nc2cc(-c3cncc(C(=O)O)c3)cnc2s1` [Example 10, 5-[2-(3-Allyl-ureido)-thiazolo[5,4-b]pyridin-6-yl]-nicotinic acid] are greater than 64 µg/mL, 32 µg/mL (≈ 90 µM), greater than 16 µg/mL and 6.73.
For `CCNC(=O)Nc1nc2cc(-c3cncc(C(=O)O)c3)cnc2s1` [Example 11, 5-[2-(3-Ethyl-ureido)-thiazolo [5,4-b]pyridin-6-yl]-nicotinic acid], the values for the MIC in the assay with Eco-tolC, in the assay on Spn548 and in the assay on M. tuberculosis were greater than 34.3 µg/mL, 17.2 µg/mL (≈ 50 µM) and 32 µg/mL (≈ 93.2 µM), respectively. For the same compound, on Msm. GyrB, the pIC50 is 6.80.
For the compound `C=CCNC(=O)Nc1nc2cc(-c3cncc(C(=O)O)c3)c(C)nc2s1` [Example 12, 5-[2-(3-Allyl-ureido)-5-methylthiazolo [5,4b]pyridin-6-yl]nicotinic acid], the MIC is greater than 32 µg/mL in the assay on Eco-tolC, 32 µg/mL (≈ 86.6 µM) in the assay with Spn548 and greater than 32 µg/mL in the assay on M. tuberculosis. In addition, the pIC50 on Msm. GyrB was 6.78.
For the compound `C=CCNC(=O)Nc1nc2cc(-c3cncc(C(=O)N(C)C)c3)c(C)nc2s1` [Example 13, 5-[2-(3-Allyl-ureido)-5-methyl-thiazolo[5,4-b]pyridin-6-yl]-N,N-dimethyl-nicotinamide], the minimal inhibitory concentration (MIC) was greater than 32 µg/mL with Eco-tolC, 4 µg/mL (≈ 10.1 µM) in the assay on Spn548 and greater than 32 µg/mL in the assay with M. tuberculosis. Besides, the pIC50 on Msm. GyrB is 6.19.
Regarding `C=CCNC(=O)Nc1nc2cc(Br)cnc2o1` [Example 14, 1-allyl-3-(6-bromooxazolo[5,4-b]pyridin-2-yl)urea], the MIC was 32 µg/mL (≈ 108 µM) with Eco-tolC, 16 µg/mL (≈ 53.9 µM) in the assay with Spn548 and greater than 16 µg/mL in the assay with M. tuberculosis. For the same compound, the pIC50 at Msm. GyrB was 4.61.
With `C=CCNC(=O)Nc1nc2cc(-c3cccnc3)cnc2o1` [Example 15, 1-allyl-3-(6-(pyridin-3-yl)oxazolo[5,4-b]pyridin-2-yl)urea], the values for the MIC in the assay with Eco-tolC, in the assay on Spn548 and against M. tuberculosis were greater than 64 µg/mL, 16 µg/mL (≈ 54.2 µM) and greater than 16 µg/mL, respectively. The pIC50 at Msm. GyrB is 5.70.
With `C=CCNC(=O)Nc1nc2cc(-c3cnc(OC)nc3)c(C)nc2o1` [Example 16, 3-allyl-1-[6-(2-methoxypyrimidin-5-yl)-5-methyl-oxazolo[5,4-b]pyridin-2-yl]urea], the minimum inhibitory concentration (MIC) with Eco-tolC is greater than 32 µg/mL; with Spn548 it was 16 µg/mL (≈ 47 µM); against M. tuberculosis, greater than 32 µg/mL. Also, on Msm. GyrB, the negative-log IC50 (pIC50) was 5.79.
As for `C=CCNC(=O)Nc1nc2cc(-c3cnc(OC)nc3)c(OCCN(C)C)nc2s1` [Example 17, 1-allyl-3-(5-(2-(dimethylamino)ethoxy)-6-(2-methoxypyrimidin-5-yl)thiazolo[5,4-b]pyridin-2-yl)urea], the MIC in the assay with Eco-tolC was greater than 64 µg/mL; with Spn548 it was 16 µg/mL (≈ 37.3 µM); in the assay on M. tuberculosis, greater than 64 µg/mL. Moreover, the pIC50 at Msm. GyrB was 6.67.
`CCNC(=O)Nc1nc2cc(-c3cnc(OC)nc3)cnc2o1` [Example 18, 1-ethyl-3-[6-(2-methoxypyrimidin-5-yl)[1,3]oxazolo[5,4-b]pyridin-2-yl]urea]: the minimal inhibitory concentration (MIC) in the assay on Eco-tolC, with Spn548 and with M. tuberculosis was greater than 32 µg/mL each time. For the same compound, the pIC50 on Msm. GyrB was 4.96.
Regarding `C=CCNC(=O)Nc1nc2cc(-c3cncc(C(=O)NCCCN4CCCC4=O)c3)cnc2s1` [Example 19, N-[3-(2-oxopyrrolidin-1-yl)propyl]-5-{2-[(prop-2-en-1-ylcarbamoyl)amino][1,3]thiazolo[5,4-b]pyridin-6-yl}pyridine-3-carboxamide], the minimal inhibitory concentration (MIC) is greater than 32 µg/mL in the assay with Eco-tolC, greater than 32 µg/mL with Spn548 and 32 µg/mL (≈ 66.7 µM) against M. tuberculosis. Besides, the pIC50 at Msm. GyrB is 6.53.
